In PMC11997890, “In Vivo and In Vitro Pharmacokinetic Studies of a Dual Topoisomerase I/II Inhibitor” (ACS Pharmacology & Translational Science, 2025):

Experiments:
OvCar8 spheroids = experiment: 3D spheroid cytotoxicity (CellTox Green); assay type: cell-based; conditions: Homo sapiens, OVCAR-8, 48 h, OvCar8 3D spheroids, read-out: IC50 cell toxicity (CellTox Green)
Protocol: Tumor complexity is represented more realistically in 3D spheroid models than in 2D monolayer models.
OvCar8 cells (8000/well) were seeded into an Ultra-Low-Attachment plate (Corning #4520) and grown for 96 h. Then, spheroids were treated with the drugs for 48 h. Cell cytotoxicity was assessed using the CellTox Green Cytotoxicity Assay (Promega #G8731) 48 h after treatment with NYONE ([…], 485Ex/520Em). Filters: BFEx/GreenEm (530/43 nm); BlueEx (475/28 nm)/GreenEm (530/43 nm). Viability and apoptosis were determined by RealTime-Glo (460Em) (Promega #G9711) and caspase-Glo 3/7 (565Em) (Promega #G8090) according to the manufacturer’s instructions using a microplate reader (Spark, Tecan). Relative caspase activity: caspase activity divided by the viability (normalized to control). For live-dead staining, cells were grown and treated as described above. Then, 80% of the medium was removed and replaced with propidium iodide (PI) (15 μM), calcein-AM (0.2 μM), and Hoechst 33342 (1.8 μM) in medium for 3 h and imaged by NYONE ([…]). Filters: BFEx/GreenEm(530/43 nm); Hoechst 33342: UVEx (377/50 nm)/BlueEm (452/45 nm); calcein-AM: BlueEx (475/28 nm)/GreenEm (530/43 nm); propidium iodide: LimeEx(562/40 nm)/RedEm(628/32 nm). All experiments were performed in biological triplicates. PBS was used as the negative control, and cisplatin and P8-D6 as the positive control.

CYP2D6 = target: T1, CYP2D6 (Homo sapiens, UniProt P10635); experiment: Conversion of P8-D6 by recombinant CYP2D6; assay type: in vitro ADME
T1 construct: host or cells: human liver microsomes (one value) / recombinant CYP enzyme (other value)
Protocol: P8-D6 N-oxide was the most common metabolite for all incubations with subcellular fractions from the homogenized tissue. According to the detected MS-MS fragments (supplied as Supporting Information Chapter 2), it resulted from N-oxygenation of the nitrogen at the side chain since the unmodified fragment of P8-DO (m/z = 414.1) was detected. Furthermore, the detected fragment at m/z = 440.1 is most likely a carbocation at the remaining ethyl chain after splitting off the dimethylamine N-oxide further strengthening the theory of selectively forming this specific N-oxide. In addition, no relevant chemical shifts in the aromatic range of the ^1H NMR compared to P8-D6 and mono were observed (supplied as Supporting Information Chapter 2). Thus, no chemical modifications can have occurred on the aromatic rings, and all changes must therefore affect the side chain. […] To determine which enzymes were responsible for the conversion, seven recombinant CYP 450 isoenzymes recommended by the FDA’s “Guidance for Industry” and human FMO3 were used.
Among the recombinant enzymes, P8-D6 is mostly metabolized to P8-D6 mono by CYP3A4 (0.34%, significant compared to any other enzyme, p < 0.0001) and 2D6 (0.17%, significant compared to 2C8, 1A2, 2C19, and 2C9, p < 0.005) (Figure E). […]

CYP3A4 = target: T2, CYP3A4 (Homo sapiens, UniProt P08684); experiment: In vitro CYP inhibition, marker substrate testosterone; assay type: in vitro ADME
T2 construct: host or cells: human liver microsomes (one value) / recombinant CYP enzyme (other value)
Protocol: (§1) To assess metabolizing enzyme-mediated drug interactions, P8-D6 was incubated with human liver (HLM) or recombinant CYP enzymes and the respective marker substrate according to the FDA (with the exception of using amitriptyline instead of S-mephenytoin). −
(§2) However, as some conversions were catalyzed by several enzymes, the conversion rates in HLM increased (e.g., bupropion and diclofenac).
(§3) To examine a possible in vitro CYP inhibition, the following CYP enzymes and marker substrates were investigated according to the FDA: , phenacetin (CYP1A2), bupropion (CYP2B6), amodiaquine (CYP2C8), diclofenac (CYP2C9), amitriptyline (CYP2C19), dextromethorphan (CYP2D6), testosterone (CYP3A4), and nifedipine (CYP3A4). Incubation was performed in a 0.2 mL reaction mix consisting of PBS buffer (pH 7.4), 1 mM marker substrate, 1 mM NADPH, and either 0.5 mg/mL recombinant CYP enzyme or human liver microsomes. P8-D6 was added for a final concentration of 0.5 μM, 1 μM, 5 μM, 10 μM, 25 μM, 50 μM, 100 μM, 500 μM, 1000 μM, and (in some cases) 5000 μM. Sample preparation was performed according to in vitro biotransformation.

CYP1A2 = target: T3, CYP1A2 (Homo sapiens, UniProt P05177); experiment: In vitro CYP inhibition, marker substrate phenacetin; assay type: in vitro ADME
T3 construct: host or cells: human liver microsomes (one value) / recombinant CYP enzyme (other value)
Protocol: as §1, §2, §3

[1] = mice; ref not given; cited from earlier work

T1 sequence (P10635 whole entry): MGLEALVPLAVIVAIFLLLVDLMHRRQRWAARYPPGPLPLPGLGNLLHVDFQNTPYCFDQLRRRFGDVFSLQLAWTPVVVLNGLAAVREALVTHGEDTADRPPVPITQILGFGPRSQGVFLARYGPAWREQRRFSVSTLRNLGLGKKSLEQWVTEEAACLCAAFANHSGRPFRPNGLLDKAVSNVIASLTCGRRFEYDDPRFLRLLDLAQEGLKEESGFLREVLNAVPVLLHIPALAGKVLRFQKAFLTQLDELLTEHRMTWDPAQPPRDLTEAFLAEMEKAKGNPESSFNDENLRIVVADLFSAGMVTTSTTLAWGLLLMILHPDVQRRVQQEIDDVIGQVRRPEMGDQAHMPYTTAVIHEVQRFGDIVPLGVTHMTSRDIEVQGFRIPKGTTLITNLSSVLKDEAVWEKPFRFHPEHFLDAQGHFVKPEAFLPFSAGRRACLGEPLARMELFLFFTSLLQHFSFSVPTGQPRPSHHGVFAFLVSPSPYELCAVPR
T3 sequence (P05177 whole entry): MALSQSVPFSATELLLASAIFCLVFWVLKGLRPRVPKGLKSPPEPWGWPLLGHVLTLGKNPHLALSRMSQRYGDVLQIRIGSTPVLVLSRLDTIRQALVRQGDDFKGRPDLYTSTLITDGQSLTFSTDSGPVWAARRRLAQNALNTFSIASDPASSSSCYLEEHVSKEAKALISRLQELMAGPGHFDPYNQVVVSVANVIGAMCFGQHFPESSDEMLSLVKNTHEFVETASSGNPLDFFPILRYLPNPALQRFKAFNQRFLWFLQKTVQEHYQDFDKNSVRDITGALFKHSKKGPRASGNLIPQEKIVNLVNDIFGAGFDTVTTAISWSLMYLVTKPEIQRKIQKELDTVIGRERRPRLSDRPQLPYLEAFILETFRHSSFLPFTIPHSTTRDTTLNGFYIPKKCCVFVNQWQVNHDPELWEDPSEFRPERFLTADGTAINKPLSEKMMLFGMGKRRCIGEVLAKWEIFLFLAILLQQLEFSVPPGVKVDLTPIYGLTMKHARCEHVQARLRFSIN
T2 sequence (P08684 whole entry): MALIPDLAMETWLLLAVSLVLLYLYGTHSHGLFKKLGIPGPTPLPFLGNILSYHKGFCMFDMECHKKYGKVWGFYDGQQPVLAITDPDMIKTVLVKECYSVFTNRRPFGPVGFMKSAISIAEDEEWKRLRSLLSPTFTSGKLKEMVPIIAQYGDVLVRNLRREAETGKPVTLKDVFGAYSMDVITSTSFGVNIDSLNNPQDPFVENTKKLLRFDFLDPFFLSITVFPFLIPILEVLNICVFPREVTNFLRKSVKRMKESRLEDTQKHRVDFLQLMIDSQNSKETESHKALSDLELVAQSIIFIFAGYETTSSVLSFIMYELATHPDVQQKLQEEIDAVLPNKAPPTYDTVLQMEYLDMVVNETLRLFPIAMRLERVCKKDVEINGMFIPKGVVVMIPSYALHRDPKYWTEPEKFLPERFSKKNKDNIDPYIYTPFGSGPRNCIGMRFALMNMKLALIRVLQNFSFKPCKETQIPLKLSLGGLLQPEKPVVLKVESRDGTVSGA

| formation of metabolite from P8-D6 (CYP2D6) [%] | SMILES | IC50 (OvCar8 spheroids) [µM] | IC50 (CYP3A4; HLM) [µM] | IC50 (CYP3A4; recombinant CYP isoenzyme) [µM] | IC50 (CYP1A2; HLM) [µM] | IC50 (CYP1A2; recombinant CYP isoenzyme) [µM] | maximum tolerated dose [1] [mg/kg BW] |
| --- | --- | --- | --- | --- | --- | --- | --- |
| 0.17 | CNCCOc1nc2c3cnccc3cc(-c3cc(OC)c(OC)c(OC)c3)c2c2ccncc12 [P8-D6 mono] | 2.22 | – | – | – | – | – |
| – | COc1cc(-c2cc3ccncc3c3nc(OCCN(C)C)c4cnccc4c23)cc(OC)c1OC [P8-D6, 6-(N,N-dimethyl-2-aminoethoxy)-11-(3,4,5-trimethoxyphenyl)-pyrido[3,4-c][1,9]-phenanthroline] | 1.11 | 165 | 94 | 912 | 503 | 5 |
| 0.09 | COc1cc(-c2cc3ccncc3c3[nH]c(=O)c4cnccc4c23)cc(OC)c1OC [P8-DO] | – | – | – | – | – | – |
